Source: patent US20250296939A1, “BENZOTHIOPHENE COMPOUND” (Kyoto Pharmaceutical Industries, Ltd., priority 2022, published 2025)

Columns and labels:
[1] = biological target: GST-fused human Keap1 (amino acid residues: 325-642) protein (Homo sapiens (Human), UniProt Q14145); assay: FP assay (in vitro): inhibition of binding between Nrf2 and Keap1 by fluorescence polarization; conditions: 20 nM GST-fused human Keap1, 10 nM FITC-labeled Nrf2 peptide, 2 hr at room temperature
[2] = system: NQO1 activity in Hepa1c1c7 cells; assay: NAD(P)H: quinone oxidoreductase-1 (NQO1) enzyme induction assay (in vitro); format: cell-based, mouse; conditions: Mus musculus, Hepa-1c1c7, NQO1 activity upon addition of 400 nM of test compound, about 48 hr, ratio from the base without the compound
Procedure, shortened: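 Mouse Hepa1c1c7 hepatoma cells were treated with 400 nM compound for about 48 h, then lysed with digitonin/EDTA. NQO1 activity was measured as menadione-mediated MTT reduction with a G6P/G6PDH NADPH-regenerating system, stopped with dicoumarol, and read at A610. Values are the activity ratio versus untreated base wells.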

GST-fused human Keap1 (amino acid residues: 325-642) protein, sequence (Q14145 325-624 limits assumed): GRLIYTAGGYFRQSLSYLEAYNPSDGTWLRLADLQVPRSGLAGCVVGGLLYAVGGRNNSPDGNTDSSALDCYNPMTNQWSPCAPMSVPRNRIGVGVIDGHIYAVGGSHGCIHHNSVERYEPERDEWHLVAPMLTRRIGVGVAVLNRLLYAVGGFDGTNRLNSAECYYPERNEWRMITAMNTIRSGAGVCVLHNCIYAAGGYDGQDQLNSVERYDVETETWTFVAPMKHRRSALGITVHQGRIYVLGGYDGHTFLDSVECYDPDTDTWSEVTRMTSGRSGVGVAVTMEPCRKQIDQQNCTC

SMILES | IC50 [1] [nM] | fold induction at 0.4 µM [2]
Cc1c([C@@H](CC(=O)O)c2cc(CN3Cc4nc(O)ccc4O[C@@H](C(F)(F)F)C3)c3sccc3c2)ccc2c1nnn2C [Example 40, (3S)-3-(1,4-Dimethyl-1H-benzotriazol-5-yl)-3-(7-{[(2R)-7-hydroxy-2-(trifluoromethyl)-2,3-dihydropyrido[2,3-f][1,4]oxazepin-4(5H)-yl]methyl}-1-benzothiophen-5-yl)propanoic acid] | 300 to 3000 | 1.5 to 3
CC[C@@H]1CN(Cc2cc([C@@H](CC(=O)O)c3cc(OC(F)(F)F)c4c(nnn4C)c3C)cc3ccsc23)Cc2nc(O)ccc2O1 [Example 41, (3R)-3-[1,4-Dimethyl-7-(trifluoromethoxy)-1H-benzotriazol-5-yl]-3-(7-{[(2R)-2-ethyl-7-hydroxy-2,3-dihydropyrido[2,3-f][1,4]oxazepin-4(5H)-yl]methyl}-1-benzothiophen-5-yl)propanoic acid] | ≤ 10 | > 5
CC[C@@H]1CN(Cc2cc([C@H](CC(=O)O)c3cc(OC(F)(F)F)c4c(nnn4C)c3C)cc3ccsc23)Cc2nc(O)ccc2O1 [Example 42, (3S)-3-[1,4-Dimethyl-7-(trifluoromethoxy)-1H-benzotriazol-5-yl]-3-(7-{[(2R)-2-ethyl-7-hydroxy-2,3-dihydropyrido[2,3-f][1,4]oxazepin-4(5H)-yl]methyl}-1-benzothiophen-5-yl)propanoic acid] | ≤ 10 | > 5
CC[C@@H]1CN(Cc2cc([C@@H](CC(=O)O)c3cc(OC(F)F)c4c(nnn4C)c3C)cc3ccsc23)Cc2nc(O)ccc2O1 [Example 43, (3R)-3-[7-(Difluoromethoxy)-1,4-dimethyl-1H-benzotriazol-5-yl]-3-(7-{[(2R)-2-ethyl-7-hydroxy-2,3-dihydropyrido[2,3-f][1,4]oxazepin-4(5H)-yl]methyl}-1-benzothiophen-5-yl)propanoic acid] | 10 to 30 | > 5
CC[C@@H]1CN(Cc2cc([C@H](CC(=O)O)c3cc(OC(F)F)c4c(nnn4C)c3C)cc3ccsc23)Cc2nc(O)ccc2O1 [Example 44, (3S)-3-[7-(Difluoromethoxy)-1,4-dimethyl-1H-benzotriazol-5-yl]-3-(7-{[(2R)-2-ethyl-7-hydroxy-2,3-dihydropyrido[2,3-f][1,4]oxazepin-4(5H)-yl]methyl}-1-benzothiophen-5-yl)propanoic acid] | ≤ 10 | > 5
Cc1c([C@H](CC(=O)O)c2cc(CN3Cc4nc(O)ccc4O[C@H](C(F)(F)F)C3)c3sccc3c2)cnc2c1nnn2C [Example 46, (3R)-3-(3,7-Dimethyl-3H-[1,2,3]triazolo[4,5-b]pyridin-6-yl)-3-(7-{[(2S)-7-hydroxy-2-(trifluoromethyl)-2,3-dihydropyrido[2,3-f][1,4]oxazepin-4(5H)-yl]methyl}-1-benzothiophen-5-yl)propanoic acid] | ≤ 10 | 3 to 5
Cc1c([C@@H](c2cc(CN3Cc4nc(O)ccc4OC4(CC4)C3)c3sccc3c2)C(C)(C)C(=O)O)ccc2c1nnn2C [Example 47, (3R)-3-(1,4-Dimethyl-1H-benzotriazol-5-yl)-3-{7-[(7′-hydroxy-3′H-spiro[cyclopropane-1,2′-pyrido[2,3-f][1,4]oxazepin]-4′ (5′H)-yl)methyl]-1-benzothiophen-5-yl}-2,2-dimethylpropanoic acid] | 300 to 3000 | 1.5 to 3
CC[C@@H]1CN(Cc2cc([C@@H](c3cnc4c(nnn4C)c3C)C(C)(C)C(=O)O)cc3ccsc23)Cc2nc(O)ccc2O1 [Example 48, (3S)-3-(3,7-Dimethyl-3H-[1,2,3]triazolo[4,5-b]pyridin-6-yl)-3-(7-{[(2R)-2-ethyl-7-hydroxy-2,3-dihydropyrido[2,3-f][1,4]oxazepin-4(5H)-yl]methyl}-1-benzothiophen-5-yl)-2,2-dimethylpropanoic acid] | 10 to 30 | > 5
CC[C@@H]1CN(Cc2cc([C@H](c3cnc4c(nnn4C)c3C)C(C)(C)C(=O)O)cc3ccsc23)Cc2nc(O)ccc2O1 [Example 49, (3R)-3-(3,7-Dimethyl-3H-[1,2,3]triazolo[4,5-b]pyridin-6-yl)-3-(7-{[(2R)-2-ethyl-7-hydroxy-2,3-dihydropyrido[2,3-f][1,4]oxazepin-4(5H)-yl]methyl}-1-benzothiophen-5-yl)-2,2-dimethylpropanoic acid] | 300 to 3000 | 3 to 5
Cc1c([C@H](c2cc(CN3Cc4nc(O)ccc4OC4(CC4)C3)c3sccc3c2)C(C)(C)C(=O)O)cnc2c1nnn2C [Example 50, (3S)-3-(3,7-Dimethyl-3H-[1,2,3]triazolo[4,5-b]pyridin-6-yl)-3-{7-[(7′-hydroxy-3′H-spiro[cyclopropane-1,2′-pyrido[2,3-f][1,4]oxazepin]-4′(5′H)-yl)methyl]-1-benzothiophen-5-yl}-2,2-dimethylpropanoic acid] | 10 to 30 | > 5
Cc1c([C@H](c2cc(CN3Cc4nc(O)ccc4O[C@H](C4CC4)C3)c3sccc3c2)C(C)(C)C(=O)O)cnc2c1nnn2C [Example 51, (3S)-3-(7-{[(2R)-2-Cyclopropyl-7-hydroxy-2,3-dihydropyrido[2,3-f][1,4]oxazepin-4(5H)-yl]methyl}-1-benzothiophen-5-yl)-3-(3,7-dimethyl-3H-[1,2,3]triazolo[4,5-b]pyridin-6-yl)-2,2-dimethylpropanoic acid] | 10 to 30 | > 5
Cc1c(C(CC(=O)O)c2cc(CN3Cc4nc(O)ccc4OC4(CC4)C3)c3sccc3c2)ccn2c(C)nnc12 (stereo not drawn) [Example 54, 3-(3,8-Dimethyl[1,2,4]triazolo[4,3-a]pyridin-7-yl)-3-{7-[(7′-hydroxy-3′H-spiro[cyclopropane-1,2′-pyrido[2,3-f][1,4]oxazepin]-4′(5′H)-yl)methyl]-1-benzothiophen-5-yl}propanoic acid] | 10 to 30 | 3 to 5
CC[C@@H]1Cc2cccnc2CN(Cc2cc(C(CC(=O)O)c3ccc4c(nnn4C)c3C)cc3ccsc23)C1 (stereo partly drawn) [Example 63, 3-(1,4-Dimethyl-1H-benzotriazol-5-yl)-3-(7-{[(6R)-6-ethyl-5,6,7,9-tetrahydro-8H-pyrido[2,3-c]azepin-8-yl]methyl}-1-benzothiophen-5-yl)propanoic acid] | 30 to 300 | 3 to 5
CC[C@H]1Cc2cccnc2CN(Cc2cc(C(CC(=O)O)c3ccc4c(nnn4C)c3C)cc3ccsc23)C1 (stereo partly drawn) [Example 64, 3-(1,4-Dimethyl-1H-benzotriazol-5-yl)-3-(7-{[(6S)-6-ethyl-5,6,7,9-tetrahydro-8H-pyrido[2,3-c]azepin-8-yl]methyl}-1-benzothiophen-5-yl)propanoic acid] | 30 to 300 | > 5

More lines, main results first:

IC50 [1] [nM] | SMILES | fold induction at 0.4 µM [2]
10 to 30 | Cc1c([C@H](CC(=O)O)c2cc(CN3Cc4nc(O)ccc4O[C@H](C(C)(F)F)C3)c3sccc3c2)ccc2c1nnn2C [Example 45, (3R)-3-(7-{[(2S)-2-(1,1-Difluoroethyl)-7-hydroxy-2,3-dihydropyrido[2,3-f][1,4]oxazepin-4(5H)-yl]methyl}-1-benzothiophen-5-yl)-3-(1,4-dimethyl-1H-benzotriazol-5-yl)propanoic acid] | > 5
≤ 10 | CC[C@@H]1CN(Cc2cc([C@@H](CC(=O)O)c3ccc4c(nnn4C)c3C)cc3ccsc23)Cc2nc(N)ccc2O1 [Example 55, (3R)-3-(7-{[(2R)-7-Amino-2-ethyl-2,3-dihydropyrido[2,3-f][1,4]oxazepin-4(5H)-yl]methyl}-1-benzothiophen-5-yl)-3-(1,4-dimethyl-1H-benzotriazol-5-yl)propanoic acid] | > 5
≤ 10 | CC[C@@H]1CN(Cc2cc([C@H](CC(=O)O)c3ccc4c(nnn4C)c3C)cc3ccsc23)Cc2nc(N)ccc2O1 [Example 56, (3S)-3-(7-{[(2R)-7-Amino-2-ethyl-2,3-dihydropyrido[2,3-f][1,4]oxazepin-4(5H)-yl]methyl}-1-benzothiophen-5-yl)-3-(1,4-dimethyl-1H-benzotriazol-5-yl)propanoic acid] | > 5
10 to 30 | CC[C@@H]1CN(Cc2cc(C(CC(=O)O)c3ccc4c(nnn4C)c3C)cc3ccsc23)Cc2nc(F)ccc2O1 (stereo partly drawn) [Example 57, 3-(1,4-Dimethyl-1H-benzotriazol-5-yl)-3-(7-{[(2R)-2-ethyl-7-fluoro-2,3-dihydropyrido[2,3-f][1,4]oxazepin-4(5H)-yl]methyl}-1-benzothiophen-5-yl)propanoic acid] | > 5
10 to 30 | CC[C@@H]1CN(Cc2cc(C(CC(=O)O)c3ccc4c(nnn4CCCS(C)(=O)=O)c3C)cc3ccsc23)Cc2nc(O)ccc2O1 (stereo partly drawn) [Example 62, 3-(7-{[(2R)-2-Ethyl-7-hydroxy-2,3-dihydropyrido[2,3-f][1,4]oxazepin-4(5H)-yl]methyl}-1-benzothiophen-5-yl)-3-{4-methyl-1-[3-(methylsulfonyl)propyl]-1H-benzotriazol-5-yl}propanoic acid] | > 5
10 to 30 | CC[C@@H]1CN(Cc2cc([C@@H](CC(=O)O)c3cnc4c(nnn4C)c3C)cc3ccsc23)Cc2nc(N)ccc2O1 [Example 67, (3R)-3-(7-{[(2R)-7-Amino-2-ethyl-2,3-dihydropyrido[2,3-f][1,4]oxazepin-4(5H)-yl]methyl}-1-benzothiophen-5-yl)-3-(3,7-dimethyl-3H-[1,2,3]triazolo[4,5-b]pyridin-6-yl)propanoic acid] | > 5
10 to 30 | CC[C@@H]1CN(Cc2cc([C@H](CC(=O)O)c3cnc4c(nnn4C)c3C)cc3ccsc23)Cc2nc(N)ccc2O1 [Example 68, (3S)-3-(7-{[(2R)-7-Amino-2-ethyl-2,3-dihydropyrido[2,3-f][1,4]oxazepin-4(5H)-yl]methyl}-1-benzothiophen-5-yl)-3-(3,7-dimethyl-3H-[1,2,3]triazolo[4,5-b]pyridin-6-yl)propanoic acid] | > 5
